Data on 25 compounds can be found in ChEMBL document CHEMBL3046775, “Synthesis and evaluation of 7-substituted-3,4-dihydrobenzo[f][1,4]oxazepin-5(2H)-ones as anticonvulsant and hypnotic agents” (Med Chem Res, 2011).

Active and inactive are the calls of the source. The rule behind the calls is not given here.

Data set [1] concerns Mus musculus. Briefly: Anticonvulsant activity in Mus musculus (mouse) assessed as protection against maximal electroshock-induced seizures at 100 mg/kg, ip administered 30 min prior to electroshock-challenge measured at 0.5 hr. It is filed as functional, organism-based. Set-up: dose 100 mg/kg.
For data set [2], the system named is Mus musculus. Briefly: Neurotoxicity against Mus musculus (mouse) at 100 mg/kg, ip measured at 0.5 hr by rotarod test. It counts as toxicity, organism-based. More on the design: dose 100 mg/kg, route intraperitoneal. As to conditions: in vivo. (The rotarod test checks motor coordination on a turning rod.)
In data set [3] the test system is Mus musculus. Briefly: Neurotoxicity against Mus musculus (mouse) at 100 mg/kg, ip measured at 4 hr by rotarod test. Set-up: dose 100 mg/kg, route intraperitoneal. It is filed as toxicity, organism-based. As to conditions: in vivo.
The test system of data set [4] is Mus musculus. Briefly: Anticonvulsant activity in Mus musculus (mouse) assessed as protection against maximal electroshock-induced seizures at 100 mg/kg, ip administered 30 min prior to electroshock-challenge measured at 4 hr. It counts as functional, organism-based. More on the design: dose 100 mg/kg. Background: Protection in the maximal electroshock model is a classic sign of anticonvulsant action.

Data set [5] deals with Mus musculus. Description: Anticonvulsant activity in Mus musculus (mouse) assessed as protection against maximal electroshock-induced seizures at 30 mg/kg, ip administered 30 min prior to electroshock-challenge measured at 0.5 hr. It counts as functional, organism-based. More on the design: dose 30 mg/kg.
The test system of data set [6] is Mus musculus. Description: Hypnotic activity in Mus musculus Kunming (mouse) assessed as increase in phenobarbital-induced sleep duration at 30 mg/kg, ip administered 30 min prior to phenobarbital-induction. More on the design: dose 30 mg/kg. It is filed as functional, organism-based.
Data set [7] in a line: Neurotoxicity against ip dosed Mus musculus (mouse) by rotarod test. It counts as toxicity, organism-based. As to conditions: in vivo.
For data set [8], the system named is Mus musculus. Description: Anticonvulsant activity in Mus musculus (mouse) assessed as protection against maximal electroshock-induced seizures at 30 mg/kg, ip administered 30 min prior to electroshock-challenge measured at 4 hr. It counts as functional, organism-based. Set-up: dose 30 mg/kg.
Data set [9] concerns Mus musculus. Description: Hypnotic activity in ip dosed Mus musculus Kunming (mouse) assessed as increase in phenobarbital-induced sleep duration administered 30 min prior to phenobarbital-induction. It counts as functional, organism-based.
A short description of data set [10]: Protective index, ratio of TD50 for neurotoxicity to ED50 for anticonvulsant activity in mouse. It counts as toxicity, organism-based. As to conditions: in vivo, read-out: Ratio TD50/ED50.
Data set [11] relates to Mus musculus. Description: Hypnotic activity in Mus musculus Kunming (mouse) assessed as increase in phenobarbital-induced sleep duration at 60 mg/kg, ip administered 30 min prior to phenobarbital-induction (reference value: 20.9 +/- 2.31 min). It is filed as functional. As to conditions: route intraperitoneal.
Data set [12] has as its system Mus musculus. Description: Hypnotic activity in Mus musculus Kunming (mouse) assessed as increase in phenobarbital-induced sleep duration at 10 mg/kg, ip administered 30 min prior to phenobarbital-induction. It is filed as functional, organism-based. Set-up: dose 10 mg/kg.
Data set [13] relates to Mus musculus. Briefly: Anticonvulsant activity in ip dosed Mus musculus (mouse) assessed as protection against maximal electroshock-induced seizures administered 30 min prior to electroshock-challenge measured at 4 hr. It is filed as functional.
Data set [14] deals with Mus musculus. Description: Hypnotic activity in Mus musculus Kunming (mouse) assessed as increase in phenobarbital-induced sleep duration at 60 mg/kg, ip administered 30 min prior to phenobarbital-induction. It is filed as functional, organism-based. Set-up: dose 60 mg/kg.
In data set [15] the test system is Mus musculus. Briefly: Neurotoxicity against Mus musculus (mouse) at 300 mg/kg, ip measured at 4 hr by rotarod test. Set-up: dose 300 mg/kg, route intraperitoneal. It counts as toxicity, organism-based. As to conditions: in vivo.
Data set [16] has as its system Mus musculus. Briefly: Anticonvulsant activity in Mus musculus (mouse) assessed as protection against maximal electroshock-induced seizures at 300 mg/kg, ip administered 30 min prior to electroshock-challenge measured at 4 hr. It is filed as functional, organism-based. Set-up: dose 300 mg/kg.
Data set [17] has as its system Mus musculus. Briefly: Neurotoxicity against Mus musculus (mouse) at 300 mg/kg, ip measured at 0.5 hr by rotarod test. It counts as toxicity, organism-based. More on the design: dose 300 mg/kg, route intraperitoneal. As to conditions: in vivo.
Data set [18] has as its system Mus musculus. Description: Anticonvulsant activity in Mus musculus (mouse) assessed as protection against maximal electroshock-induced seizures at 300 mg/kg, ip administered 30 min prior to electroshock-challenge measured at 0.5 hr. More on the design: dose 300 mg/kg. It counts as functional, organism-based.

As a reminder, the TD50 is the dose at which the toxic effect under study appears in half of the subjects. As usually defined, the ED50 is the midpoint of the dose-response relation.

`O=C1NCCOc2ccc(OCc3ccc(Cl)cc3)cc21`: the outcome in the data set on Mus musculus [1] and in the data set on Mus musculus [4] was inactive. Moreover, the Activity entry in the data set with Mus musculus [2] is given as “Toxic”; in the data set with Mus musculus [3], “Non-toxic”.

For `CCCCCCCOc1ccc2c(c1)C(=O)NCCO2`, the outcome in the data set with Mus musculus [5] and with Mus musculus [6] was Active. In [7], the TD50 was found to be 47.3 mg/kg. Further, the outcome in the data set with Mus musculus [8] and in the data set on Mus musculus [12] was inactive. For the same compound, the values for the Activity result in the data set with Mus musculus [9], with Mus musculus [2] and in the data set on Mus musculus [3] were “Dose-dependent effect”, “Toxic” and “Non-toxic”, respectively. Also, the selectivity ratio in data set [10] stood at 2.5. Also, in the data set on Mus musculus [11], the Time worked out at 45.7 min. Moreover, in the data set with Mus musculus [13], the median effective dose (ED50) was found to be 19 mg/kg.

Consider `CN1CCN(C(=O)OC2c3nccnc3C(=O)N2c2ccc(Cl)cn2)CC1` (stereo not drawn), for which the outcome in the data set with Mus musculus [14] was Active.

`CCCCOc1ccc2c(c1)C(=O)NCCO2`: the outcome in the data set with Mus musculus [1] and with Mus musculus [4] was Active. Besides, the Activity entry is “Toxic” in the data set with Mus musculus [2] and “Non-toxic” with Mus musculus [3].

As to `NC(=O)N1c2ccccc2C=Cc2ccccc21` [CARBAMAZEPINE], in data set [10], the selectivity ratio is 6.4.

With `CCCCCOc1ccc2c(c1)C(=O)NCCO2`, in the data set on Mus musculus [1], the outcome was Active. Further, the TD50 in [7] was 106 mg/kg. In addition, the selectivity ratio in data set [10] amounted to 1.9. Moreover, the results for the Activity result in the data set on Mus musculus [2] and in the data set on Mus musculus [3] were “Toxic” and “Non-toxic”, respectively. Also, the ED50 in the data set on Mus musculus [13] was 56.8 mg/kg. In addition, in the data set on Mus musculus [4], the outcome was inactive.

Take `O=C1NCCOc2ccc(OCc3cccc(Cl)c3)cc21`: the result in the data set with Mus musculus [1] was Active. The results for the Activity entry in the data set on Mus musculus [2] and with Mus musculus [3] were “Toxic” and “Non-toxic”, respectively. The result with Mus musculus [4] was inactive.

Turning to `O=C1NCCOc2ccc(OCc3c(Cl)cccc3Cl)cc21`, the result in the data set with Mus musculus [1] and in the data set with Mus musculus [4] was inactive. Further, the Activity entry with Mus musculus [2] is recorded as “Toxic”; in the data set with Mus musculus [3] it was “Non-toxic”.

In the case of `Cc1ccc(COc2ccc3c(c2)C(=O)NCCO3)cc1`, the result in the data set with Mus musculus [1] and in the data set with Mus musculus [4] was inactive. Further, the Activity entry is “Toxic” with Mus musculus [2] and “Non-toxic” with Mus musculus [3].

Regarding `O=C1NCCOc2ccc(OCc3cccc(F)c3)cc21`, the outcome with Mus musculus [1] was Active. Moreover, the TD50 in [7] is 73.1 mg/kg. Besides, the selectivity ratio in data set [10] stood at 1. In addition, the Activity result with Mus musculus [2] was “Toxic”; in the data set on Mus musculus [3] it was “Non-toxic”. In addition, the ED50 in the data set on Mus musculus [13] was found to be 73.1 mg/kg. Further, the outcome with Mus musculus [4] was inactive.

As to `O=C1NCCOc2ccc(OCc3ccc(Br)cc3)cc21`, the Activity result was “Non-toxic” in the data set on Mus musculus [15] and “Toxic” in the data set on Mus musculus [17]. For the same compound, the outcome in the data set with Mus musculus [16] was inactive. The result in the data set on Mus musculus [18] was Active.

For `CCOc1ccc2c(c1)C(=O)NCCO2`, the result with Mus musculus [1] and with Mus musculus [4] was inactive. The Activity result in the data set on Mus musculus [2] and in the data set on Mus musculus [3] was “Non-toxic” each time.

`COc1ccc(COc2ccc3c(c2)C(=O)NCCO3)cc1OC`: the outcome with Mus musculus [1] and in the data set on Mus musculus [4] was inactive. Moreover, the Activity result is “Toxic” in the data set on Mus musculus [2] and “Non-toxic” in the data set with Mus musculus [3].

As for `O=C1NCCOc2ccc(OCc3ccccc3F)cc21`, the outcome in the data set with Mus musculus [1] was Active. This compound came in with a TD50 in [7] of 52.8 mg/kg. Also, the selectivity ratio in [10] was found to be 1.2. For the same compound, the Activity result is on record as “Toxic” in the data set with Mus musculus [2] and “Non-toxic” in the data set with Mus musculus [3]. Also, the ED50 with Mus musculus [13] was determined as 45.6 mg/kg. In addition, in the data set with Mus musculus [4], the result was inactive.

Take `CCCCCCOc1ccc2c(c1)C(=O)NCCO2`: the outcome with Mus musculus [1] and in the data set with Mus musculus [4] was Active. Further, the TD50 in [7] was 106 mg/kg. The selectivity ratio in data set [10] turned out to be 2.2. The values for the Activity entry in the data set with Mus musculus [2] and in the data set with Mus musculus [3] were “Toxic” and “Non-toxic”, respectively. Further, the ED50 with Mus musculus [13] was found to be 47.3 mg/kg.

For the compound `O=C1CCc2cc(OCc3ccccc3)ccc2N1`, in data set [7], the TD50 is > 300 mg/kg.

For `CCC1(c2ccccc2)C(=O)NC(=O)NC1=O` [PHENOBARBITAL], in the data set on Mus musculus [13], the ED50 was found to be 21.8 mg/kg.

For the compound `CCCCCCCCCCCCOc1ccc2c(c1)C(=O)NCCO2`, the Activity entry is listed as “Non-toxic” in the data set with Mus musculus [15] and “Toxic” in the data set with Mus musculus [17]. The outcome with Mus musculus [16] was inactive. The outcome in the data set on Mus musculus [18] was Active.

In the case of `O=C1NCCOc2ccc(OCc3ccccc3Br)cc21`, the result in the data set with Mus musculus [1] and with Mus musculus [4] was inactive. Moreover, the Activity entry in the data set on Mus musculus [2] is given as “Toxic”; with Mus musculus [3], “Non-toxic”.

For the compound `CCCCCCCCOc1ccc2c(c1)C(=O)NCCO2`, in the data set on Mus musculus [1], the result was Active. Further, the Activity result is “Toxic” with Mus musculus [2] and “Non-toxic” in the data set with Mus musculus [3]. Further, the outcome with Mus musculus [4] was inactive.

Take `CCCOc1ccc2c(c1)C(=O)NCCO2`: the outcome in the data set on Mus musculus [1] was Active. The compound further displayed a TD50 in data set [7] of 170 mg/kg. The selectivity ratio in data set [10] stood at 2.2. Besides, the Activity entry is on record as “Toxic” in the data set on Mus musculus [2] and “Non-toxic” in the data set on Mus musculus [3]. In addition, the ED50 in the data set on Mus musculus [13] is 78.3 mg/kg. Further, in the data set on Mus musculus [4], the result was inactive.

Turning to `O=C1NCCOc2ccc(OCc3ccc(F)cc3)cc21`, the Activity entry in the data set with Mus musculus [15] was “Non-toxic”; in the data set on Mus musculus [17], “Toxic”. For the same compound, the outcome in the data set with Mus musculus [16] and with Mus musculus [18] was Active.

On to `O=C1NCCOc2ccc(OCc3ccccc3)cc21`, for which, in the data set with Mus musculus [1], the outcome was Active. In data set [7], this compound displayed a TD50 of 76.2 mg/kg. For the same compound, the selectivity ratio in data set [10] turned out to be 1. The Activity entry with Mus musculus [2] is on record as “Toxic”; in the data set on Mus musculus [3], “Non-toxic”. Also, in the data set on Mus musculus [13], the ED50 stood at 73.1 mg/kg. In addition, the outcome in the data set on Mus musculus [4] was inactive.

As for `COc1ccc(COc2ccc3c(c2)C(=O)NCCO3)cc1`, the outcome with Mus musculus [1] and in the data set with Mus musculus [4] was inactive. Further, the Activity entry with Mus musculus [2] and with Mus musculus [3] was “Non-toxic” in each case.

On to `O=C1NCCOc2ccc(OCc3ccccc3Cl)cc21`, for which the Activity result in the data set with Mus musculus [15] is “Non-toxic”; in the data set on Mus musculus [17], “Toxic”. Further, the outcome in the data set on Mus musculus [16] was inactive. For the same compound, in the data set with Mus musculus [18], the outcome was Active.
